What follows are compounds tested against T1, JAK3 (Homo sapiens, UniProt P52333) (assay: Kinobeads assay, JAK3). Settings: mixed Molt4/Ramos lysate, read-out: Inhibition values (IC50) JAK3.
T1 construct: endogenous in cells; host or cells: mixed Molt4/Ramos lysate (1:2)
T1 sequence (P52333 1-1124): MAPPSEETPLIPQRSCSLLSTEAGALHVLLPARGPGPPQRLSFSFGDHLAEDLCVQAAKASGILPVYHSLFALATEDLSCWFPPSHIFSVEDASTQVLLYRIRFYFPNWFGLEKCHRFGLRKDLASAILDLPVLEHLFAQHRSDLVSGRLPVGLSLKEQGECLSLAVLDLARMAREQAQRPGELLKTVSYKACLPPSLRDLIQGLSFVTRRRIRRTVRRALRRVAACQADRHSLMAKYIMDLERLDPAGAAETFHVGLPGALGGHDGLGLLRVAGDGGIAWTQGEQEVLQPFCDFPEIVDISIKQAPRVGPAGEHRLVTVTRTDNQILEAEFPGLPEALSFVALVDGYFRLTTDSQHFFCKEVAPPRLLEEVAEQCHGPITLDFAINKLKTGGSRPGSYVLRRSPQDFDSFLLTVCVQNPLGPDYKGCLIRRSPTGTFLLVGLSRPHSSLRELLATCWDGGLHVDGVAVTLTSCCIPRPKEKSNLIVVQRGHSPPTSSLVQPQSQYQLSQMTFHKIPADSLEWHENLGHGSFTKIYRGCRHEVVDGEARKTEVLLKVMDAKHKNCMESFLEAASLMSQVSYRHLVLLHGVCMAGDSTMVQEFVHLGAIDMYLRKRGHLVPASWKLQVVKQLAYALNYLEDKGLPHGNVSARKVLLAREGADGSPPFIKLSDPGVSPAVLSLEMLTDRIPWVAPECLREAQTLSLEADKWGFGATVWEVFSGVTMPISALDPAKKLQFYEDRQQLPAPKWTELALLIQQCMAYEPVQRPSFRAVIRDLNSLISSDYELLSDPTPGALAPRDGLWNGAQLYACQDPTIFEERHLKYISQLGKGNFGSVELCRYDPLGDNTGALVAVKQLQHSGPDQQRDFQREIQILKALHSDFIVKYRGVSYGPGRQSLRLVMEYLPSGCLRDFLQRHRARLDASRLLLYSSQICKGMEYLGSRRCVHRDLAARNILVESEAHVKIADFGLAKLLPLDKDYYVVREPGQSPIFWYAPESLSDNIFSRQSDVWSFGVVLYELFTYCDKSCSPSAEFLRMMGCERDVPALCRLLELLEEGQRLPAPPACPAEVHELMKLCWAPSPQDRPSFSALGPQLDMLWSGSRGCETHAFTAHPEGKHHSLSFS
Type: binding
Procedure, shortened: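 IC50 values come from dose-response curves of JAK2/JAK3 captured on immobilized aminopyrido-pyrimidine beads, quantified by antibody dot blot with infrared read-out. Compounds (1:3 series, 9 steps, from 5 mM DMSO stock) competed for 3 h in the cold with mixed Molt4/Ramos lysate (1:2, 10 mg/mL protein).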

IC50, < 100 nM:
O=C1CNCCN1c1cccc(Cn2ncc3cnc(Nc4cnn(CCO)c4)nc32)c1F [Example 55, 1-(2-Fluoro-3-((6-((1-(2-hydroxyethyl)-1H-pyrazol-4-yl)amino)-1H-pyrazolo[3,4-d]pyrimidin-1-yl)methyl)phenyl)piperazin-2-one]
OCCn1cc(Nc2ncc3cnn(Cc4cc(N5CCOCC5)cc(F)c4F)c3n2)cn1 [Example 56, 2-(4-((1-(2,3-Difluoro-5-morpholinobenzyl)-1H-pyrazolo[3,4-d]pyrimidin-6-yl)amino)-1H-pyrazol-1-yl)ethanol]
O=C1CNCCN1c1cccc(Cn2ncc3cnc(Nc4cnn(CCO)c4)nc32)c1 [Example 57, 1-(3-((6-((1-(2-Hydroxyethyl)-1H-pyrazol-4-yl)amino)-1H-pyrazolo[3,4-d]pyrimidin-1-yl)methyl)phenyl)piperazin-2-one]
O=C1COCCN1c1cc(F)cc(Cn2ncc3cnc(Nc4cnn(CCO)c4)nc32)c1 [Example 58, 4-(3-Fluoro-5-((6-((1-(2-hydroxyethyl)-1H-pyrazol-4-yl)amino)-1H-pyrazolo[3,4-d]pyrimidin-1-yl)methyl)phenyl)morpholin-3-one]
O=C1COCCN1c1cc(F)c(F)c(Cn2ncc3cnc(Nc4cnn(CCO)c4)nc32)c1 [Example 59, 4-(3,4-Difluoro-5-((6-((1-(2-hydroxyethyl)-1H-pyrazol-4-yl)amino)-1H-pyrazolo[3,4-d]pyrimidin-1-yl)methyl)phenyl)morpholin-3-one]
c1cc(Cn2ncc3cnc(Nc4cnn(CC5CCNC5)c4)nc32)cc(N2CCOCC2)c1 (centres unmarked) [Example 60, 1-(3-Morpholinobenzyl)-N-(1-(pyrrolidin-3-ylmethyl)-1H-pyrazol-4-yl)-1H-pyrazolo[3,4-d]pyrimidin-6-amine]
Cn1cc(Nc2ncc3cnn(Cc4c(F)c(F)cc(N5CCOCC5=O)c4F)c3n2)cn1 [Example 61, 4-(2,4,5-Trifluoro-3-((6-((1-methyl-1H-pyrazol-4-yl)amino)-1H-pyrazolo[3,4-d]pyrimidin-1-yl)methyl)phenyl)morpholin-3-one]
O=C1COCCN1c1cc(F)c(F)c(Cn2ncc3cnc(Nc4cnn(CCO)c4)nc32)c1F [Example 62, 4-(2,4,5-Trifluoro-3-((6-((1-(2-hydroxyethyl)-1H-pyrazol-4-yl)amino)-1H-pyrazolo[3,4-d]pyrimidin-1-yl)methyl)phenyl)morpholin-3-one]
O=C1CNCCN1c1cc(F)cc(Cn2ncc3cnc(Nc4cnn(CCO)c4)nc32)c1 [Example 63, 1-(3-Fluoro-5-((6-((1-(2-hydroxyethyl)-1H-pyrazol-4-yl)amino)-1H-pyrazolo[3,4-d]pyrimidin-1-yl)methyl)phenyl)piperazin-2-one]
Cn1cc(Nc2ncc3cnn(Cc4cc(F)cc(N5CCNCC5=O)c4)c3n2)cn1 [Example 64, 1-(3-Fluoro-5-((6-((1-methyl-1H-pyrazol-4-yl)amino)-1H-pyrazolo[3,4-d]pyrimidin-1-yl)methyl)phenyl)piperazin-2-one]
COC1CN(c2cccc(Cn3ncc4cnc(Nc5cnn(C)c5)nc43)c2)C1 [Example 65, 1-(3-(3-Methoxyazetidin-1-yl)benzyl)-N-(1-methyl-1H-pyrazol-4-yl)-1H-pyrazolo[3,4-d]pyrimidin-6-amine]
Cn1cc(Nc2ncc3cnn(Cc4c(F)c(F)cc(N5CCNCC5)c4F)c3n2)cn1 [Example 66, N-(1-Methyl-1H-pyrazol-4-yl)-1-(2,3,6-trifluoro-5-(piperazin-1-yl)benzyl)-1H-pyrazolo[3,4-d]pyrimidin-6-amine]
Cn1cc(Nc2ncc3cnn(Cc4cccc(N5CCNCC5)c4F)c3n2)cn1 [Example 67, 1-(2-Fluoro-3-(piperazin-1-yl)benzyl)-N-(1-methyl-1H-pyrazol-4-yl)-1H-pyrazolo[3,4-d]pyrimidin-6-amine]
CNC(=O)Cn1cc(Nc2ncc3cnn(Cc4cc(F)cc(N5CCOCC5=O)c4)c3n2)cn1 [Example 68, 2-(4-((1-(3-Fluoro-5-(3-oxomorpholino)benzyl)-1H-pyrazolo[3,4-d]pyrimidin-6-yl)amino)-1H-pyrazol-1-yl)-N-methylacetamide]
Cn1cc(Nc2ncc3cnn(Cc4c(F)ccc(N5CCOCC5=O)c4F)c3n2)cn1 [Example 69, 4-(2,4-Difluoro-3-((6-((1-methyl-1H-pyrazol-4-yl)amino)-1H-pyrazolo[3,4-d]pyrimidin-1-yl)methyl)phenyl)morpholin-3-one]
CN(C)CCCn1cc(Nc2ncc3cnn(Cc4c(F)c(F)cc(N5CCOCC5=O)c4F)c3n2)cn1 [Example 70, 4-(3-((6-((1-(3-(Dimethylamino)propyl)-1H-pyrazol-4-yl)amino)-1H-pyrazolo[3,4-d]pyrimidin-1-yl)methyl)-2,4,5-trifluorophenyl)morpholin-3-one]
Cn1cc(Nc2ncc3cnn(Cc4cc(N5CCNCC5=O)cc(F)c4F)c3n2)cn1 [Example 71, 1-(3,4-Difluoro-5-((6-((1-methyl-1H-pyrazol-4-yl)amino)-1H-pyrazolo[3,4-d]pyrimidin-1-yl)methyl)phenyl)piperazin-2-one]
O=C1CNCCN1c1cc(F)c(F)c(Cn2ncc3cnc(Nc4cnn(CCO)c4)nc32)c1 [Example 72, 1-(3,4-Difluoro-5-((6-((1-(2-hydroxyethyl)-1H-pyrazol-4-yl)amino)-1H-pyrazolo[3,4-d]pyrimidin-1-yl)methyl)phenyl)piperazin-2-one]
Cn1cc(Nc2ncc3cnn(Cc4cc(F)cc(N5CCOCC5=O)c4F)c3n2)cn1 [Example 73, 4-(2,5-Difluoro-3-((6-((1-methyl-1H-pyrazol-4-yl)amino)-1H-pyrazolo[3,4-d]pyrimidin-1-yl)methyl)phenyl)morpholin-3-one]
O=C1COCCN1c1cc(F)cc(Cn2ncc3cnc(Nc4cnn(CCO)c4)nc32)c1F [Example 74, 4-(2,5-Difluoro-3-((6-((1-(2-hydroxyethyl)-1H-pyrazol-4-yl)amino)-1H-pyrazolo[3,4-d]pyrimidin-1-yl)methyl)phenyl)morpholin-3-one]
CN(C)CCCn1cc(Nc2ncc3cnn(Cc4c(F)ccc(N5CCOCC5=O)c4F)c3n2)cn1 [Example 75, 4-(3-((6-((1-(3-(Dimethylamino)propyl)-1H-pyrazol-4-yl)amino)-1H-pyrazolo[3,4-d]pyrimidin-1-yl)methyl)-2,4-difluorophenyl)morpholin-3-one]
Cn1cc(Nc2ncc3cnn(Cc4c(F)ccc(N5CCNCC5=O)c4F)c3n2)cn1 [Example 76, 1-(2,4-Difluoro-3-((6-((1-methyl-1H-pyrazol-4-yl)amino)-1H-pyrazolo[3,4-d]pyrimidin-1-yl)methyl)phenyl)piperazin-2-one]
COC1CCN(c2cccc(Cn3ncc4cnc(Nc5cnn(C)c5)nc43)c2)CC1 [Example 77, 1-(3-(4-Methoxypiperidin-1-yl)benzyl)-N-(1-methyl-1H-pyrazol-4-yl)-1H-pyrazolo[3,4-d]pyrimidin-6-amine]
OCCn1cc(Nc2ncc3cnn(Cc4cc(N5CCNCC5)cc(F)c4F)c3n2)cn1 [Example 78, 2-(4-((1-(2,3-Difluoro-5-(piperazin-1-yl)benzyl)-1H-pyrazolo[3,4-d]pyrimidin-6-yl)amino)-1H-pyrazol-1-yl)ethanol]
Cn1cc(Nc2ncc3cnn(Cc4cc(F)cc(C(=O)N5CCOCC5)c4)c3n2)cn1 [Example 79, (3-Fluoro-5-((6-((1-methyl-1H-pyrazol-4-yl)amino)-1H-pyrazolo[3,4-d]pyrimidin-1-yl)methyl)phenyl)(morpholino)methanone]
Cn1cc(Nc2ncc3cnn(Cc4cc(F)cc(C(=O)N5CCNCC5)c4)c3n2)cn1 [Example 80, (3-Fluoro-5-((6-((1-methyl-1H-pyrazol-4-yl)amino)-1H-pyrazolo[3,4-d]pyrimidin-1-yl)methyl)phenyl)(piperazin-1-yl)methanone]

Source: patent US9040545B2, “Heterocyclyl pyrazolopyrimidine analogues as selective JAK inhibitors” (Cellzome Limited, priority 2010, dated 2015)
